Results published in the supplement of paper PMC10307832.

What was measured:
Assay in all cases: relative viability (nuclei count vs DMSO), 5 days (fraction); higher = more cells survive
[1] = compound: CCN(CCO)CCCC(C)Nc1ccnc2cc(Cl)ccc12 [Hydroxychloroquine] + CS(=O)(=O)N1CCN(Cc2cc3nc(-c4cccc5[nH]ncc45)nc(N4CCOCC4)c3s2)CC1 [Pictilisib] (partner 1 µM)
Summary of the method: (§1)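 Cells from lung cancer lines were seeded into 1536-well plates and, one day later, dosed by pin tool. Treatments were either a single drug or a fixed dose of an anchor drug with five library-drug doses (not always all listed) in √10 steps. After 5 days, nuclei were stained in a one-step fixation (final 0.05% Triton X-100, 1% formaldehyde, 1 ug/ml Hoechst) and counted on 4× images, and relative viability is the treated-to-vehicle nuclei ratio, as the median of duplicate plates.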

[2] = compound: CCN(CCO)CCCC(C)Nc1ccnc2cc(Cl)ccc12 [Hydroxychloroquine] + CC(C)C[C@H](NC(=O)[C@H](Cc1ccccc1)NC(=O)c1cnccn1)B(O)O [Bortezomib] (partner 0.002 µM)
Summary of the method: as §1

[3] = compound: CCN(CCO)CCCC(C)Nc1ccnc2cc(Cl)ccc12 [Hydroxychloroquine] + COc1cc2c(Oc3ccc(NC(=O)C4(C(=O)Nc5ccc(F)cc5)CC4)cc3F)ccnc2cc1OCCCN1CCOCC1 [Foretinib] (partner 0.25 µM)
Summary of the method: as §1

[4] = compound: CCN(CCO)CCCC(C)Nc1ccnc2cc(Cl)ccc12 [Hydroxychloroquine] + CC(=O)c1c(C)c2cnc(Nc3ccc(N4CCNCC4)cn3)nc2n(C2CCCC2)c1=O [Palbociclib] (partner 0.5 µM)
Summary of the method: as §1

Cell Line	relative viability ([1]; first compound 0.5 µM)	relative viability ([1]; first compound 1.581 µM)	relative viability ([1]; first compound 5 µM)	relative viability ([1]; first compound 15.81 µM)	relative viability ([1]; first compound 50 µM)	relative viability ([2]; first compound 0.5 µM)	relative viability ([2]; first compound 1.581 µM)	relative viability ([2]; first compound 5 µM)	relative viability ([2]; first compound 15.81 µM)	relative viability ([2]; first compound 50 µM)	relative viability ([3]; first compound 0.5 µM)	relative viability ([3]; first compound 1.581 µM)	relative viability ([3]; first compound 5 µM)	relative viability ([3]; first compound 15.81 µM)	relative viability ([3]; first compound 50 µM)	relative viability ([4]; first compound 0.5 µM)	relative viability ([4]; first compound 1.581 µM)	relative viability ([4]; first compound 5 µM)	relative viability ([4]; first compound 15.81 µM)	relative viability ([4]; first compound 50 µM)
LOU-NH91	0.531	0.488	0.567	0.509	0.488	0.467	0.507	0.492	0.475	0.539	0.921	0.831	0.949	0.94	0.914	0.534	0.562	0.5	0.55	0.531
LU99A	0.367	0.288	0.337	0.28	0.362	1.11	1.02	1.11	1.08	1.26	0.914	0.724	0.786	0.789	0.861	0.356	0.383	0.377	0.444	0.473
LXF-289	0.765	0.819	0.797	0.736	0.769	1.02	1.01	0.939	1.01	1	0.96	0.959	0.969	1.03	1.08	0.577	0.588	0.656	0.575	0.602
NCI-H23	0.552	0.409	0.384	0.385	0.449	1.15	1.14	0.884	1.02	0.881	1.04	0.968	0.979	0.99	0.903	0.499	0.487	0.548	0.464	0.477
NCI-H322M	0.533	0.438	0.475	0.515	0.524	1.31	1.27	1.16	1.36	1.2	1	0.937	0.934	1.03	0.935	0.484	0.43	0.431	0.482	0.457
NCI-H441	0.488	0.532	0.535	0.38	0.428		0.426	0.453	0.552	0.77	0.919	1.07	1.02	1.02	0.861	0.217	0.187	0.185	0.192	0.204
NCI-H460	0.37	0.266	0.366	0.406	0.352	1.08	1.05	1.1	1.39	1.36	1.01	0.995	1.08	1.04	1.25	0.129	0.148	0.149	0.115	0.227
NCI-H520	0.338	0.255	0.29	0.354	0.387	0.639	0.606	0.662	0.658	0.511	0.833	0.781	0.801	0.839	0.748	0.232	0.205	0.231	0.199	0.239
NCI-H647	0.514	0.323	0.335	0.357	0.476	1.07	1.19	0.876	1.15	0.813	1.25	1.16	1.18	1.39	1.25	0.418	0.439	0.41	0.282	0.366
NCI-H650	0.867	0.758		1.01	0.827	0.911	0.759		0.901	0.748	1.04	0.888	0.983	1.03	0.97	0.341	0.288	0.3	0.35	0.311
NCI-H661	0.472	0.413	0.406	0.384	0.358	0.795	0.719	0.652	0.761	0.825	0.998	0.992	1.01	1	1.05	0.404	0.364	0.413	0.377	0.403
NCI-H727	0.389	0.339	0.444	0.325	0.371	0.975	0.749	0.89	0.823	0.885	0.752	0.767	0.735	0.794	0.922	0.643	0.552	0.561	0.661	0.688
NCI-H838	0.509	0.465	0.398	0.465	0.53	0.9	0.819	0.663	0.79	0.805	1.07	0.978	1.08	0.98	1.13	0.237	0.197	0.242	0.194	0.22
NCI-H1355	0.475	0.362	0.461	0.485	0.471	1.24	1.19	1.09	1.12	1.25	0.941	0.965	0.956	1.02	0.979	0.41	0.365	0.392	0.387	0.379
NCI-H1437	0.341	0.49	0.412	0.421	0.439	0.516	0.737	0.505	0.483	0.446	1.26	1.26	1.33	1.31	1.28	0.291	0.328	0.328	0.295	0.336
NCI-H1650	0.558	0.578	0.49	0.542	0.599	0.203	0.221	0.218	0.227	0.219	0.996	1.01	1.02	0.999	1.15	0.291	0.341	0.317	0.323	0.355
